{"source": "patent US20150306110A1", "about": "“COMPOSITIONS AND METHODS FOR TREATMENT OF INFLAMMATION AND HYPERKERATOTIC LESIONS” (Novelix Pharmaceuticals, Inc., priority 2008, published 2015)", "key": {"GOTO (autonomic ganglia)": {"system": "GOTO (autonomic ganglia)", "test": "Cell growth/survival, GOTO neuronal cancer cells", "type": "cell-based", "details": "Homo sapiens, TP53 neg."}, "[1]": {"system": "melanoma, liposarcoma, colon-and lung cancer cells", "test": "Cell growth in select cancer cell lines, NVX-207 compared to betulinic acid (FIGS. 1A-D)", "type": "cell-based", "details": "various cancer and non-cancer cells, human and animal cell lines", "description": "FIGS. 1A-D show cell survival in select human cancer cell lines: 518A2 melanoma (FIG. 1A), SW872 liposarcoma (FIG. 1B), Caco-2 colon carcinoma (FIG. 1C) and A549 lung carcinoma (FIG. 1D). Cell survival as a percentage of untreated controls (y-axis) in response to NVX-207 (grey lines) or betulinic acid (black lines) in μg/ml (x-axis) are shown.\nMelanoma cell lines used in this study were maintained in Dulbecco's modified Eagle medium (DMEM with 4500 mg/l glucose) supplemented with 10% FCS from Gibco BRL (Life Technologies, Berlin, Germany). The canine mastocytoma cell line C2 (DeVinney et al, Am. J. Respir. Cell Mol. Biol. 3:413-20, 1990) was used in this study, along with additional human cell lines: RD-ES and TC-71 (human Ewing's sarcoma), SAOS2 (human osteosarcoma), HT-1080 (human fibrosarcoma), Caco-2 (human colon adenocarcinoma), A549 (human lung adenocarcinoma), Hep-G2 and Hep-3B (human hepatocellular carcinoma), SK-N-DZ and SK-N-FI (human embryonal neuroblastoma), HTB9 (human bladder cancer), MDA-468 and MCF-7 (human breast cancer) and SW872 liposarcoma. […]\nBriefly, cells were maintained in standard medium, harvested, and plated at equal densities (750,000 cells in 5 cm tissue culture dishes). […] For the assessment of cell growth, the number of surviving cells was determined using an automated cell counter from Beckman Coulter GmbH (Krefeld, Germany). […]"}, "pigs": {"system": "pigs", "details": "pig, in vivo"}, "[2]": {"test": "Solubility in ethanol, DMSO and ethanol-Tween 80", "type": "physicochemical", "details": "for solubility: organic solvent or mixture", "description": "After solution in ethanol or DMSO, or chemically similar solvents, NVX-207 or a related compound may be formulated with co-solvents such as Cremophor EL® and/or Tween® 80, in a similar manner described for taxanes. For example, the formulation approach for paclitaxel (TAXOL®; Bristol-Myers Squibb) was to use 50% Cremophor EL® and 50% ethanol. The pharmaceutical formulation of paclitaxel contains 30 mg paclitaxel dissolved in 5 ml of this (1:1, v/v) mixture. These and equivalent formulations allow for the application of NVX-207 in sufficiently high concentrations not only for topical, but also for intralesional and systemic (intravenous infusion) use. Solubility of NVX-207 in ethanol was determined to be at least 300 mg/ml and reached 250 mg/ml in DMSO. […] The solubility of NVX-207 in ethanol-Tween® 80 was evaluated. Two-hundred mg of NVX-207 was dissolved in 1 ml ethanol. […] Then an equal volume of Tween® 80 was added, to achieve a stock solution of 100 mg/ml of NVX-207. The stock solution was clear and yellow. Each stock solution was diluted first 1:1 (50 mg/ml NVX-207), then 1:5 (20 mg/ml NVX-207) and finally 1:10 (10 mg/ml NVX-207) with water. […] NVX-207 therefore has, apart from its higher activity, significant advantages over betulinic acid, that include higher activity, better solubility in pharmaceutically suitable solvents, and better handling."}, "human fibroblasts": {"system": "human fibroblasts", "test": "Survival of fibroblasts at 80% and 30% confluency", "type": "cell-based", "details": "2.5 μM; for Mean survival, percentage of control-treated cells: fibroblasts, n=3", "description": "All cells were treated with 2.5 μM NVX-207. Percentage (means±S.E., n=3) of control-treated cells are given. […] Mean survival in NVX-207 treated fibroblasts at 80% confluency was 92% (S.E.=3.8) versus 3.8% mean survival (S.E.=0.4) at 30% confluency. […] HUVECs, keratinocytes and fibroblast cells were obtained from Lonza GmbH (Wuppertal, Germany) and cultivated according to the manufacturer's instructions.\nHuman umbilical vein endothelial cells (HUVEC), keratinocytes and fibroblast cells were obtained from Lonza GmbH (Wuppertal, Germany) and cultivated according to the manufacturer's instructions. […] The IC50 value of betulinic acid in human keratinocytes was recently determined to be ˜5.0 μg/ml (Tino Galgon al., Exp Dermatol. 14:736-43, 2005), while the IC50 of NVX-207 is ˜0.7 µg/ml. […] Mean survival in NVX-207 treated fibroblasts at 80% confluency was 92% (S.E.=3.8) versus 3.8% mean survival (S.E.=0.4) at 30% confluency. […] Under normal physiological conditions, the endothelium, as well as skin fibroblasts and skin keratinocytes, show relatively low turn-over and limited cell divisions to maintain tissue integrity.\nKeratinocytes at high confluence (e.g., 80%) mimic normal physiological conditions in which these cells divide more slowly (fewer cell divisions per unit of time). In contrast, keratinocytes in psoriatic lesions divide more rapidly, as do keratinocytes cultured at lower confluency (e.g., 30%). Thus, the 30% confluency conditions were considered a model for psoriasis whereas the behavior of 80% confluent cells more closely reflects the conditions observed in normal skin."}}, "data": [{"smiles": "C=C(C)[C@@H]1CC[C@]2(C(=O)OCC(N)(CO)CO)CC[C@]3(C)[C@H](CC[C@@H]4[C@@]5(C)CC[C@H](OC(C)=O)C(C)(C)[C@@H]5CC[C@]43C)[C@@H]12", "note": "[NVX-207, 3-O-acetylbetulinic acid-2-amino-3-hydroxy-2-hydroxymethylpropyl ester]", "values": [{"measurement": "IC50", "setting": "GOTO (autonomic ganglia)", "result": 2000, "unit": "nM"}, {"measurement": "Efficacy on a molar basis in promoting cell death compared to betulinic acid", "setting": "[1]", "result": "up to 5 fold"}, {"measurement": "Blood chemistry and hematology (blood status, mineral homoeostasis, liver and kidney functions)", "setting": "pigs", "result": "did not reflect any systemic NVX-207-induced impact"}, {"measurement": "Histopathological changes in skin biopsies", "setting": "pigs", "result": "No treatment-related histopathological changes were observed"}, {"measurement": "Macroscopic skin irritations", "setting": "pigs; 2 weeks", "result": "No macroscopic NVX-207 related skin irritations were observed"}, {"measurement": "Increase in solubility in DMSO compared to betulinic acid", "setting": "[2]; DMSO", "result": "over 20 fold"}, {"measurement": "Increase in solubility in ethanol compared to betulinic acid", "setting": "[2]; ethanol", "result": "over 300 fold"}, {"measurement": "solubility", "setting": "[2]; Solubility in DMSO", "result": 250, "unit": "mg/mL"}, {"measurement": "solubility", "setting": "[2]; Solubility in ethanol", "result": "≥ 300", "unit": "mg/mL"}, {"measurement": "Mean survival, percentage of control-treated cells", "setting": "human fibroblasts; 30% confluency", "result": 3.8, "unit": "%"}, {"measurement": "Mean survival, percentage of control-treated cells", "setting": "human fibroblasts; 80% confluency", "result": 92, "unit": "%"}, {"measurement": "More active against proliferating cells (30% vs 80% confluency)", "setting": "human fibroblasts; human fibroblasts", "result": "over 20 fold"}]}]}
